Experimental data published in ChEMBL document CHEMBL1201862, “PubChem BioAssay data set” (2004).
Activity calls are given as the source filed them.

What was measured:
[1] = NIH-3T3 fibroblast cytotoxicity, dose response, cytotoxicity control, cell-based, fluorescence, Alamar Blue, secondary assay (AID 2327); type: functional;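 also: NIH-3T3 mouse fibroblasts cultured with fluconazole at 8 µg/mL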
[2] = viability of PTEN-deleted HCT116 cells – cell-based, HCT116 PTEN knockout, dose response (AID 1047); type: functional;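 also: HCT116 colon tumor cells with PTEN knocked out; cells exposed to compound for 60 hours before readout; potency for loss of cell viability measured by luminescence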
[3] = target: T1, Serine/threonine-protein phosphatase (Candida dubliniensis (strain CD36 / CBS 7987 / NCPF 3949 / NRRLY-17841) (Yeast), UniProt B9W6M3); assay: blockers of CaCl2-induced CDRE-lacZ signaling – S. cerevisiae, luminescence, secondary, dose response (AID 2388); type: functional, cell-based;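 also: yeast reporter cells carrying a calcineurin-responsive lacZ construct stimulated with calcium chloride; luminescent beta-galactosidase reporter signal in whole cells rather than isolated phosphatase activity; potency for inhibition where a drop in reporter signal means calcineurin blockade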
T1 sequence (B9W6M3 whole entry): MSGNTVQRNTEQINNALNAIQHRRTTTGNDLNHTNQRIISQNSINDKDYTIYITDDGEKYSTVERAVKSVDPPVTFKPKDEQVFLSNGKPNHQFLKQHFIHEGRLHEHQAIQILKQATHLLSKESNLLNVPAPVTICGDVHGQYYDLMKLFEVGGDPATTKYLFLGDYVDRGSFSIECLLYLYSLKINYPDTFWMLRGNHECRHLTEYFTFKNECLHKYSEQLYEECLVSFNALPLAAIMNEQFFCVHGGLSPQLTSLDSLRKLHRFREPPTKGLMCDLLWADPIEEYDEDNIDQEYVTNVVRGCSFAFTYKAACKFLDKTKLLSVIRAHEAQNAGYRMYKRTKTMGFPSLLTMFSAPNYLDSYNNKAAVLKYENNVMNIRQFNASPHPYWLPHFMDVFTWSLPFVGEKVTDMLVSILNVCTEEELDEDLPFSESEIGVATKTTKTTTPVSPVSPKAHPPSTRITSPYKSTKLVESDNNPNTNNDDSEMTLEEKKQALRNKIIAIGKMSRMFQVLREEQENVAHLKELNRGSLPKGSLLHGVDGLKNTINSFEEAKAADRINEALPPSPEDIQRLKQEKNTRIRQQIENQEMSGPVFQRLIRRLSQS

[4] = target: T2, Sentrin-specific protease 7 (Homo sapiens, UniProt Q9BQF6); type: functional;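 also: Luminescence-based dose-response confirmation of ultra-high-throughput screening hits, measuring inhibition of SENP7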
T2 sequence (Q9BQF6 whole entry): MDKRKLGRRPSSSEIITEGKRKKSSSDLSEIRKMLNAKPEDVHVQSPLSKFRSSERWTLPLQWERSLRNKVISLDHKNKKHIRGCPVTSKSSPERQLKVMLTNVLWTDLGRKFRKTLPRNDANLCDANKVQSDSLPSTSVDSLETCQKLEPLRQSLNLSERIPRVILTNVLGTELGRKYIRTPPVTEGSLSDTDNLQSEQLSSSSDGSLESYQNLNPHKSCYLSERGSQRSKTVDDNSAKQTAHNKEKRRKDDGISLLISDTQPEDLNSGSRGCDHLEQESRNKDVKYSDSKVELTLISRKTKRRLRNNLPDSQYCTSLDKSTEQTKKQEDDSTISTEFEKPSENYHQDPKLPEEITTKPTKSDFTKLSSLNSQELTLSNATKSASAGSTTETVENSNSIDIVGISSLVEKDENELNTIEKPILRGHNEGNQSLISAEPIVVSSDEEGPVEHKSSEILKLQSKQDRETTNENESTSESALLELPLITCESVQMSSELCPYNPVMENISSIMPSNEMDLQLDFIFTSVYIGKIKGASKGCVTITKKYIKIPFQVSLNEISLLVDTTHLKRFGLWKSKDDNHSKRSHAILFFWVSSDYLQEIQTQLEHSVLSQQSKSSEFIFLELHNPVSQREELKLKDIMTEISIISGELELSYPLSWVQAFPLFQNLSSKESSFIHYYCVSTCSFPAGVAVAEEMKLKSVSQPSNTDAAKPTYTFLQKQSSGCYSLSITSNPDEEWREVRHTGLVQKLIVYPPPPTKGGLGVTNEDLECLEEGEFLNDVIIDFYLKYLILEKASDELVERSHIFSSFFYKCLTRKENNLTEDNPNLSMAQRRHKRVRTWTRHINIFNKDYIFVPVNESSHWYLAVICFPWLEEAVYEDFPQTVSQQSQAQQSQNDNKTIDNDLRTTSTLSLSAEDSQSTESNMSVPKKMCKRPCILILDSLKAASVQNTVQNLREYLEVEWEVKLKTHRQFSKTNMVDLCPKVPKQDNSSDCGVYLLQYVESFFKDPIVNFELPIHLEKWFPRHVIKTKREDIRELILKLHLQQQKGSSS

[5] = system: Streptococcus sp. 'group A'; assay: Streptococcus pyogenes SK(-)GAS viability under kanamycin – luminescence, BacTiterGlo, confirmation, counter-screen for streptokinase expression inhibitor project, dose response (AID 1900); type: functional, organism-based
Hexokinase HKDC1 = target: T3, Hexokinase HKDC1 (Homo sapiens, UniProt Q2TB90); assay: inhibition of HKDC1 glucose phosphorylation – biochemical, W721R variant, dose response (AID 504729); type: functional
T3 sequence (Q2TB90 whole entry): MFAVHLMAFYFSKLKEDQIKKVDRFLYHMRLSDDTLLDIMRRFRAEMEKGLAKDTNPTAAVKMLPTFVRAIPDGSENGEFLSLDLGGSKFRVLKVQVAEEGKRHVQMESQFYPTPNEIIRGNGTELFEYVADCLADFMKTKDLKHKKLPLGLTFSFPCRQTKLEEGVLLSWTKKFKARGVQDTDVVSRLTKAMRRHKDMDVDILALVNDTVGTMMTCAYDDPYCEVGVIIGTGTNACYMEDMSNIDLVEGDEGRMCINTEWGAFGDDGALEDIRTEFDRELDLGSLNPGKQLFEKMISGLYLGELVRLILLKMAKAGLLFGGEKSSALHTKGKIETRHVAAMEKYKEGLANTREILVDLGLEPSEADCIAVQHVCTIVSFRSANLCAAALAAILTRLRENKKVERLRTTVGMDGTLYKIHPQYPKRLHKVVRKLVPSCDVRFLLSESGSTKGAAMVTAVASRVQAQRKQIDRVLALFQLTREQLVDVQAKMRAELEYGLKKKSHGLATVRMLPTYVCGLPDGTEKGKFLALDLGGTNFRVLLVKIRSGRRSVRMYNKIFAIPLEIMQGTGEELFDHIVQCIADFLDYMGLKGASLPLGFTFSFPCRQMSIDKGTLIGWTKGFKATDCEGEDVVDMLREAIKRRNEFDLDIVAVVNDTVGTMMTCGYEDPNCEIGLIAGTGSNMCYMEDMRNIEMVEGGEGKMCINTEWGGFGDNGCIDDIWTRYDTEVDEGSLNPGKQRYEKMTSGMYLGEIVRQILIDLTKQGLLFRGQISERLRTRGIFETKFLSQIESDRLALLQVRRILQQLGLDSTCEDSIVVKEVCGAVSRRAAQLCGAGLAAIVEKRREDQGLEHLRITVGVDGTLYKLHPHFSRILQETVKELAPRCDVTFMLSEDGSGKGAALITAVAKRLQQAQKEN

Compound	EC50 [1]	EC50 [2]	EC50 [3]	IC50 [4]	EC50 [5]	IC50 (Hexokinase HKDC1)
Cc1ccc(NC2=CC(=O)C(=O)c3ccccc32)cc1	20.5 µM (active)	6.79 µM (active)	> 180 µM (inactive)	36.7 µM (active)	–	–
O=C(O)c1ccc(S(=O)(=O)/N=C2\C=C(Nc3ccccc3F)C(=O)c3ccccc32)cc1	–	–	–	–	5.74 µM (active)	3 µM (active)
